According to patent US7405317B2, “Phosphate-bearing prodrugs of sulfonyl hydrazines as hypoxia-selective antineoplastic agents” (priority 2004, dated 2008):
Where two headings read alike, the source gives them in different places.

Tests used:
[1] = test system: H460 human lung carcinoma; type: in vivo, mice; details: for tumor growth inhibition: H460 in CD-1 nude mice, KS119W 4 doses 180 mg/kg and 1 dose 240 mg/kg, CTX 100 mg/kg per dose, ip on days 15, 22, 27, 34, 43, CTX two hours after KS119W, FIG. 9; for reduction of final tumor volume compared with control group: H460, daily ip, FIG. 8
Description: (§1) The anti-tumor effects of aforementioned prodrugs are evaluated in both solid and liquid tumor models, including the B16-F10 murine melanoma, HTB177 human lung carcinoma models, DLD1 human colon carcinoma, EMT-6 murine mammary gland carcinoma, L1210 murine leukemia, lymphoma, prostate cancer, pancreatic cancer, and head-and-neck cancer. The prodrugs are given intravenously, orally, or intraperitoneally at doses from 10 mg/kg to 2000 mg/kg; they are give at different dosing schedules such as 4 times daily, once daily, or once every several days for up to 60 doses. Testing tumor cells were implanted subcutaneously into mice, which were randomized into groups immediately after tumor cell implantation (Day 0). Mice were injected intraperitoneally (ip) with either a bolus injection of 0.1 mL PBS or drug. The treatment was carried out in a designed dosing schedule. Tumor measurement in three dimensions was determined once a week with the formula L×H×W/2, where L, H, and W represent length, height, and width, respectively.
(§2) Efficacy of KS119 was studied in murine tumor model and human xenograft models. EMT-6 murine mammary carcinoma cells (3×10^5 cells/mouse) were implanted subcutaneously into Balb/c mice. H460 human lung carcinoma cells, HT29 human colon carcinoma cells and SHP77 human lung carcinoma cells were established as solid xenografts in nu/nu CD-1 mice and Scid/Beige mice with 7×10^7 cells/mouse, respectively. After implantation, tumors were allowed to grow to a size of 150 to 200 mm^3 before starting treatment with KS119. KS119 was formulated in a solvent containing polyethylene glycol 300 (PEG), ethyl alcohol, citric acid, and ascorbic acid.
(§3) Efficacies of KS119W and KS119 were compared with equivalence molar doses in EMT-6 tumor and H460 tumor models. KS119W was formulated with 0.25M sodium bicarbonate solution. The treatment was started when tumors researched 150 to 200 mm^3, and lasted up to 2 weeks. KS119 at doses of 80 and 100 mg/kg and KS119W at doses of 97.6 and 121.3 mg/kg were daily administrated into mice via ip injection. […] To assess the toxicity of treatment, body weight and peripheral blood cell count were monitored after treatment.
(§4) Combined therapy of KS119W with cytoxan (CTX) was evaluated by using KS119W at dose below the MTD in combination with nontoxic dose of CTX against EMT-6 murine mammary carcinoma and H460 human lung carcinoma in CD-1 nude mice. The tumors were allowed to grow to a size of approximately 200 mm^3. In H460 tumor model, the animals received either with 4 doses 180 mg/kg and 1 dose 240 mg/kg of KS119 or CTX at dose of 100 mg/kg per dose per animal, ip injecting the drugs on 15, 22, 27, 34 and 43 days after the tumor implantation. In the combination studies, CTX was given two hours after dosing KS119W.

[2] = test system: EMT-6 murine mammary carcinoma; type: in vivo, mice; details: for tumor growth inhibition: EMT-6, KS119W daily 97 mg/kg for 7 doses, CTX 100 mg/kg ip once per week for 4 doses
Description: as §1, §2, §3, §4

[3] = Toxicity of treatment in tumor-bearing mice (body weight, blood cell count, appearance); type: in vivo; details: for toxicity of treatment (body weight, peripheral blood cell count): KS119 80 and 100 mg/kg, KS119W 97.6 and 121.3 mg/kg, daily ip
Description: as §1, with “respectively. The toxicity of these drugs in mice was mild as determined by body weight loss and animal appearance.” for “respectively.”
Efficacies of KS119W and KS119 were compared with equivalence molar doses in EMT-6 tumor and H460 tumor models. KS119W was formulated with 0.25M sodium bicarbonate solution. The treatment was started when tumors researched 150 to 200 mm^3, and lasted up to 2 weeks. KS119 at doses of 80 and 100 mg/kg and KS119W at doses of 97.6 and 121.3 mg/kg were daily administrated into mice via ip injection. […] The toxicity of KS119 and KS119W were dose-dependent. To assess the toxicity of treatment, body weight and peripheral blood cell count were monitored after treatment.
as §4, with “KS119W. […] The inhibition of combination therapy was statistically significant against all control groups with p values of 0.003, 0.015 and 0.038, respectively. Additive toxicity at the doses used for combination was manageable; while the 180 mg/kg qw ×4 doses of KS119W alone caused a maximum net body weight loss of 4.5%, the same dose in combination with 4 doses of CTX at 100 mg/kg per week caused 8.6% weight loss but no death. A similar degree of growth inhibition was also observed with EMT-6 tumor model. […]” for “KS119W.”

[4] = Solubility of KS119 in co-solvent system; type: physicochemical; details: polyethylene glycol (PEG) and ethanol co-solvent system, organic solvent or mixture, read-out: solubility in co-solvent system like polyethylene glycol (PEG) and ethanol
[5] = test system: EMT6 murine mammary carcinoma cells; assay: Aerobic/hypoxic cell survival (clonogenic assay), EMT6; type: cell-based; details: for cell kill: 0.1% oxygen, 10 μM drug concentration; for cell kill / cytotoxicity to EMT6 cells under oxygenated conditions: FIG. 5; for drug activity as a function of oxygen concentration: 10 or 25 μM, oxygen 0.05% to 21%, FIG. 6; for cytotoxicity to EMT6 cells under oxygenated conditions: normal air (21% oxygen), concentrations up to 25 μM; for in vitro cytotoxic activity to EMT6 cells versus parental racemic drug (potency and aerobic/hypoxic differential): de-phosphorylated enantiomers, aerobic/hypoxic cell assay
Description: (§5) EMT6 or CHO (parental or human cytochrome P-450 reductase transfected) cells, seeded in glass milk dilution bottles, were gassed for 2 hours through a rubber septum fitted with 13 gauge (inflow) and 18 gauge (outflow) needles with a mixture of 5% CO2, oxygen at various concentrations, with the balance of the mixture made up of nitrogen, to establish various hypoxic conditions. Drugs were then injected without disrupting hypoxia. After two hours, cells were collected and plated in a clonogenic assay to determine the surviving fraction, compared to untreated controls.
(§6) For in vitro analysis, KS119W must be converted to KS119OH (1) in an AP-catalyzed reaction shown above in FIG. 2, as the phosphorylated parent drug cannot cross cell membranes. KS119OH is then used in all subsequent in vitro studies shown in this section.
Moreover, the R- and S-enantiomers of KS119W (VNP40541 and VNP40551) were converted to the corresponding de-phosphorylated forms for study in the in vitro aerobic/hypoxic cell assay.

[6] = test system: CHO-450red (human cytochrome P-450 reductase transfected CHO cells); assay: Aerobic/hypoxic cell survival, cytochrome P-450 reductase transfected CHO cells; type: cell-based; details: drug 10 μM
Description: as §5, §6
(§7) Like KS119, cytochrome P-450 reductase can activate KS1190H under hypoxic conditions.

[7] = test system: CHO-SCS-II (non-transfected parental line); assay: Aerobic/hypoxic cell survival, parental CHO cells; type: cell-based; details: drug 10 μM
Description: as §5, §6, §7

[8] = Maximum tolerated dose (MTD) finding; type: in vivo, mice
Description: In order to fairly select a better compound from two enantiomers of KS119W for future clinical development, finding maximum tolerated dose (MTD) for VNP40541 (R-form) and VNP40551 (S-form) was conducted and the results were shown as Table 3.

[9] = test system: SHP77 human lung carcinoma; assay: In vivo anti-tumor activity, SHP77 xenograft; design: species or system mice; details: SHP77/Scid-Beige; dose VNP40541 110 mpk, VNP40551 85 mpk
Description: as §1, with “respectively. The toxicity of these drugs in mice was mild as determined by body weight loss and animal appearance.” for “respectively.”
Efficacy of KS119 was studied in murine tumor model and human xenograft models. EMT-6 murine mammary carcinoma cells (3×10^5 cells/mouse) were implanted subcutaneously into Balb/c mice. […]

[10] = KS119W 97.2 mg/kg ×10 doses, KS119 equal molar dose 80 mg/kg
[11] = KS119W 121.6 mg/kg ×7 doses, KS119 equal molar dose 100 mg/kg

O=P1(N(CCCl)CCCl)NCCCO1 (stereo not shown) [CTX, reference compound]
tumor growth inhibition [1]: 54%
tumor growth inhibition [2]: negligible effect

CC(OC(=O)N(N(CCCl)S(C)(=O)=O)S(C)(=O)=O)c1ccc([N+](=O)[O-])cc1 (stereo not shown) [KS119, 1,2-Bis(methylsulfonyl)-2-(2-chloroethyl)-hydrazine carboxylic acid 1-(4-nitrophenyl)ethyl ester, reference compound]
toxicity of treatment (body weight, peripheral blood cell count) [3]: not significant hematological toxicity or severe weight loss
reduction of final tumor volume compared with control group [1, 10]: 40%
reduction of final tumor volume compared with control group [1, 11]: 40%
solubility [4]: < 5000 µg/mL
cell kill [5]: ~5 orders of magnitude
drug activity as a function of oxygen concentration [5]: significant drug activity at all oxygen concentrations below 10% oxygen
cytotoxicity to EMT6 cells under oxygenated conditions [5]: virtually inactive

C[C@H](OC(=O)N(N(CCCl)S(C)(=O)=O)S(C)(=O)=O)c1ccc([N+](=O)[O-])c(OP(=O)(O)O)c1 [VNP40551]
Surviving fraction at 0.1% oxygen [6]: 0.002553
Surviving fraction in air [6]: 1.015
Inhibition (%) ([1]; H460/Nude Mice, dose VNP40541 80-140 mpk, VNP40551 40-80 mpk): 53-80%
Inhibition (%) ([2]; EMT6/BLAB-c Mice, dose VNP40541 85-115 mpk, VNP40551 55-85 mpk): 52-78%
Surviving fraction at 0.1% oxygen [7]: 0.1188
Surviving fraction in air [7]: 1.148
MTD ([8]; BALB/c mice, × 5): 85 mpk
MTD ([8]; Nude CD-1 mice, × 10): 80 mpk
MTD ([8]; Scid/Beige mice, × 8): 85 mpk
Inhibition (%) [9]: 82%

CC(OC(=O)N(N(CCCl)S(C)(=O)=O)S(C)(=O)=O)c1ccc([N+](=O)[O-])c(O)c1 (racemic) [KS119OH]
cell kill [5]: ~5 orders of magnitude
drug activity as a function of oxygen concentration [5]: significant drug activity at all oxygen concentrations below 10% oxygen
cytotoxicity to EMT6 cells under oxygenated conditions [5]: virtually inactive

C[C@H](OC(=O)N(N(CCCl)S(C)(=O)=O)S(C)(=O)=O)c1ccc([N+](=O)[O-])c(O)c1 [S-KS119OH]
in vitro cytotoxic activity to EMT6 cells versus parental racemic drug (potency and aerobic/hypoxic differential) [5]: very similar to the parental racemic drug

C[C@@H](OC(=O)N(N(CCCl)S(C)(=O)=O)S(C)(=O)=O)c1ccc([N+](=O)[O-])c(O)c1 [R-KS119OH]
in vitro cytotoxic activity to EMT6 cells versus parental racemic drug (potency and aerobic/hypoxic differential) [5]: very similar to the parental racemic drug

CC(OC(=O)N(N(CCCl)S(C)(=O)=O)S(C)(=O)=O)c1ccc([N+](=O)[O-])c(OP(=O)(O)O)c1 (stereo not shown) [KS119W, 1,2-Bis(methylsulfonyl)-2-(2-chloroethyl)hydrazine-carboxylic acid 1-(3-dihydrogenphosphonoxy-4-nitrophenyl)ethyl ester]
Surviving fraction at 0.1% oxygen [6]: 0.009444
Surviving fraction in air [6]: 0.8791
toxicity of treatment (body weight, peripheral blood cell count) [3]: not significant hematological toxicity or severe weight loss
maximum net body weight loss ([3]; KS119W 180 mg/kg qw ×4 doses alone or with 4 doses of CTX at 100 mg/kg per week): 4.5%
reduction of final tumor volume compared with control group [1, 10]: 60%
reduction of final tumor volume compared with control group [1, 11]: 78%
tumor growth inhibition [1]: 78%
tumor growth inhibition [2]: 59%
Surviving fraction at 0.1% oxygen [7]: 0.3336
Surviving fraction in air [7]: 1.185
